Nine molecules from article PMC11623267, “Inhibitors of malaria parasite cyclic nucleotide phosphodiesterases block asexual blood-stage development and mosquito transmission” (Science Advances, 2024) can be followed below.

pEC50: −log10 of the molar value.

The subject of the first assay is P. falciparum clinical isolates from Porto Velho, Brazil. Briefly: Ex vivo schizont maturation assay, Brazilian clinical isolates. In kind it is cell-based, Plasmodium falciparum. Conditions: Plasmodium falciparum, read-out: EC50 range, clinical isolates. As for the experimental part:
Only monoinfected patients with P. falciparum with parasitemia between 2000 and 80,000 parasites/μl and with at least 70% of ring-stage parasites were recruited. Patients who had used an antimalarial in the previous month and/or presented with symptoms of severe malaria were excluded from the study. The study cohort comprised 24 patients living in this highly endemic area. A peripheral venous blood sample (5 ml) was collected from each individual by venipuncture in heparin-containing tubes and immediately used in the ex vivo drug susceptibility assay using preprepared plates containing diluted antimalarial compounds. […] Last, 20 μl of each dilution was transferred into the ex vivo assay plate and diluted 10-fold into the final assay medium containing parasites. For the infected blood preparation, 5 ml of whole blood was centrifuged at 800g for 10 min, and the plasma and buffy coat were removed. […] Control assays on a 3D7 laboratory isolate were performed with medium supplemented with human serum (20%). The iRBC (180 μl per well) were distributed in the predosed drug plate. […] Control wells containing drug-free iRBCs were cultured with complete medium. The parasite-drug incubation was terminated when 40% of the ring stages reached the schizont stage (at least three distinct nuclei per parasite) in the drug-free control wells. Thick blood films were then made from each well, dried, stained with 5% Giemsa solution for 30 min, and examined microscopically. The number of schizonts per 200 asexual-stage parasites was determined for each drug concentration and then normalized by comparing with the schizont number in the drug-free control wells [considered as 100% ([64])]. The half-maximal drug inhibitory response (EC50) was estimated by curve fitting using software from the OriginLab Corporation, Northampton, MA, USA and comparing with parasite growth in the drug-free controls.
Regarding `C[C@H]1[C@H](OC(=O)CCC(=O)O)O[C@@H]2O[C@@]3(C)CC[C@H]4[C@H](C)CC[C@@H]1[C@@]24OO3` [Artesunate, reference compound], the pEC50 is 8.05 to 10.00.

Still in this assay, the particulars now being: Plasmodium falciparum, read-out: Median EC50, clinical isolates.
Regarding `C[C@H]1[C@H](OC(=O)CCC(=O)O)O[C@@H]2O[C@@]3(C)CC[C@H]4[C@H](C)CC[C@@H]1[C@@]24OO3` [Artesunate, reference compound], the pEC50 is 9.22.

The test system of another assay is HepG2 cells. Briefly: HepG2 cytotoxicity.
Settings: not given
In kind it is cell-based. An excerpt:
Table 1. Key activity data for the three main chemical subseries against ABS parasites, parasite fractions, and HepG2 cells. ND, not determined; ×/÷ is the geometric mean with geometric SD. | column: HepG2 EC50 (nM) (selectivity index)
Turning to `CCc1c2nc(-c3cc(C(=O)NC)cnc3OCC(C)C)[nH]c(=O)c2nn1CCOC` [SAL-0010031], the pEC50 was less than 4.60.

Consider `CNC(=O)c1cnc(OCC(C)C)c(-c2nc3c(C(C)C)n[nH]c3c(=O)[nH]2)c1` [SAL-0010301], for which the pEC50 is less than 4.60.

A further assay deals with P. falciparum (clone 3D7). The assay can be described thus: Parasite reduction ratio (PRR) assay. In kind it is cell-based, Plasmodium falciparum. Conditions: 10× EC50, 3D7. Here is the method:
The in vitro killing profile of compounds was determined by monitoring the ability of parasites to recover following treatment with a compound of interest using a previously reported approach ([50]), which allowed calculation of the PRR ([51]). […] To quantify the number of viable parasites following treatment, four independent sets of threefold serial dilutions were performed on each sample, which were assayed for the presence or absence of parasites after 28 days using the LDH assay, and the number of viable parasites was determined by the number of wells showing growth. PRR and PCT99.9% were calculated as previously reported ([50]).
Regarding `C[C@H]1[C@H](OC(=O)CCC(=O)O)O[C@@H]2O[C@@]3(C)CC[C@H]4[C@H](C)CC[C@@H]1[C@@]24OO3` [Artesunate, reference compound], the Lag phase amounted to 0 h, the “Log PRR” value is recorded as greater than 8 and the “PCT99.9% (hours taken to kill 99.9% of the parasites)” value is less than 24 h.

Take `O=C1C(O)=C([C@H]2CC[C@H](c3ccc(Cl)cc3)CC2)C(=O)c2ccccc21` [Atovaquone, reference compound]: the Lag phase worked out at 48 h, the “Log PRR” value was 2.26 and the “PCT99.9% (hours taken to kill 99.9% of the parasites)” value was found to be 73.0 h.

Turning to `CCc1c2nc(-c3cc(C(=O)NC)cnc3OCC(C)C)[nH]c(=O)c2nn1CCOC` [SAL-0010031], the Lag phase was 0 h, the “Log PRR” value turned out to be 2.78 and the “PCT99.9% (hours taken to kill 99.9% of the parasites)” value was found to be 51.2 h.

In the case of `CNC(=O)c1cnc(OCC(C)C)c(-c2nc3c(C(C)C)n[nH]c3c(=O)[nH]2)c1` [SAL-0010301], the Lag phase turned out to be 0 h, the “Log PRR” value turned out to be 2.55 and the “PCT99.9% (hours taken to kill 99.9% of the parasites)” value was found to be 55.1 h.

Still in this assay, the particulars now being: 10× EC50, 3D7 killing profile.
Turning to `O=C1C(O)=C([C@H]2CC[C@H](c3ccc(Cl)cc3)CC2)C(=O)c2ccccc21` [Atovaquone, reference compound], the Slope is given as −0.0470 ± 0.0042.

Regarding `CCc1c2nc(-c3cc(C(=O)NC)cnc3OCC(C)C)[nH]c(=O)c2nn1CCOC` [SAL-0010031], the Slope is −0.0579 ± 0.0058.

With `CNC(=O)c1cnc(OCC(C)C)c(-c2nc3c(C(C)C)n[nH]c3c(=O)[nH]2)c1` [SAL-0010301], the Slope is recorded as −0.0532 ± 0.0042.

Still in this assay, the particulars now being: 10× EC50; faster than pyrimethamine, slower than chloroquine.
`CCc1c2nc(-c3cc(C(=O)NC)cnc3OCC(C)C)[nH]c(=O)c2nn1CCOC` [SAL-0010031]: the Killing profile entry is “fast/moderate killing profile”.

Take `CNC(=O)c1cnc(OCC(C)C)c(-c2nc3c(C(C)C)n[nH]c3c(=O)[nH]2)c1` [SAL-0010301]: the Killing profile result was “fast/moderate killing profile”.

In the next assay the test system is P. falciparum stage V gametocytes (male gamete formation). Briefly: Exflagellation (male gamete formation) inhibition assay. In kind it is cell-based, Plasmodium falciparum. Conditions: 2 μM, 48 hours. As for the experimental part:
The exflagellation inhibition assay was performed by capturing movement of exflagellation centers over time by video microscopy [adapted from a reported protocol ([52])]. For this carry-over format, mature stage V gametocytes were treated with 2 μM of each compound for 48 hours before induction of exflagellation in the presence of compound. To evaluate compound dose response, gametocytes were treated similarly at a set of concentrations representing a fourfold serial dilution. Mature gametocyte cultures (>95% stage V; 500 μl) were centrifuged at 3500 rpm for 30 s, and the pellet was resuspended in 30 μl of ookinete medium [RPMI 1640 medium containing L-glutamine (Sigma-Aldrich, R6504), gentamycin (0.024 mg/ml; HyClone, SV30080.01), 202 μM hypoxanthine (Sigma-Aldrich, H9636), 25 mM Hepes (Sigma-Aldrich, H4034), 0.2% glucose (Sigma-Aldrich, G6152), and 0.5% (w/v) AlbuMAX II (Invitrogen, Paisley, UK), supplemented with 100 μM XA and 20% human serum]. The activated culture (10 μl) was introduced into a Neubauer chamber and placed on the microscope platform to settle homogenously. Time was noted as time zero (T0), and the chamber was incubated at room temperature. Movement was recorded by video microscopy using a Carl Zeiss NT 6V/10W Stab microscope, fitted with a MicroCapture camera at 10× magnification, and then quantified by a semiautomated method, a modification of the method described previously ([53]). A series of 15 videos of 8 to 10 s each were captured at random locations between 15 and 22.5 min after incubation. Each video was analyzed using Icy bioimage analysis software to quantify the number of exflagellating centers. Compound IC50 values were determined with nonlinear curve fitting (GraphPad Prism 6), normalized to maximum and minimum inhibition.
As to `CC(C)c1n[nH]c2c(=O)[nH]c(C3CCOc4ccc(F)cc43)nc12` (stereo not drawn) [SAL-0010007], the “% inhibition of exflagellation at 2 μM” value was 100 ± 0%.

On to `CCCCOc1ncc(Br)cc1-c1nc2c(C(C)C)n[nH]c2c(=O)[nH]1` [SAL-0010203], for which the “% inhibition of exflagellation at 2 μM” value was 76.7 ± 13.6%.

As to `CC(C)COc1ccc(S(=O)(=O)N(C)C)cc1-c1nc2c(C(C)C)n[nH]c2c(=O)[nH]1` [SAL-0010243], the “% inhibition of exflagellation at 2 μM” value turned out to be 95.4 ± 12.3%.

Turning to `CC(C)COc1ccc(S(=O)(=O)N(C)C)cc1-c1nc2c(C3CCC3)n[nH]c2c(=O)[nH]1` [SAL-0010283], the “% inhibition of exflagellation at 2 μM” value is reported as 72.1 ± 26.0%.

`CC(C)COc1ccc(S(=O)(=O)N(C)C)cc1-c1nc2c(C(C)(C)C)n[nH]c2c(=O)[nH]1` [SAL-0010284]: the “% inhibition of exflagellation at 2 μM” value worked out at 60.5 ± 18.0%.

Another assay has as its system P. falciparum stage IV/V gametocytes. The assay can be described thus: LDH-based gametocyte viability assay. The class given is cell-based, Plasmodium falciparum. The following applies: stage IV to V gametocytes. Here is the method: The pLDH assay was performed on late (>95% stage IV/V) gametocytes. Compound dilutions were placed in triplicate in 96-well plates in a final volume of 100 μl per well. DHA and MMV048 were used as positive drug controls. The gametocyte cultures (100 μl per well) were added to the 96-well plates to achieve a final gametocytemia and hematocrit of 2 and 1%, respectively, in a total incubation volume of 200 μl. Plates were incubated at 37°C for 72 hours, followed by the replacement of spent medium with drug-free culture medium (75% medium change) ([54], [55]). Plates were then incubated for a further 72 hours before assessing viability by measuring pLDH activity. Gametocyte viability was determined spectrophotometrically by measuring the activity of pLDH, according to a modified version of a published protocol ([56]). Briefly, 100 μl of Malstat reagent [0.21% (v/v) Triton X-100, 222 mM L-(+)-lactic acid, 54.5 mM tris, 0.166 mM APAD (Sigma-Aldrich, A5251), adjusted to pH 9 with 1 M NaOH] was transferred into a clean 96-well plate. A fixed volume of 20 μl of parasite suspension per well was added to the Malstat plate, followed by the addition of 25 μl of PES/NBT (0.239 mM phenazine ethosulfate and 1.96 mM nitro blue tetrazolium chloride). Absorbance was measured with a Multiskan Ascent 354 multiplate scanner (Thermo LabSystems, Finland) at 620 nm.
For `CC(C)c1n[nH]c2c(=O)[nH]c(C3CCOc4ccc(F)cc43)nc12` (stereo not drawn) [SAL-0010007], the “% inhibition gametocyte viability at 15 μM” value is 100 ± 0%.

Consider `CCCCOc1ncc(Br)cc1-c1nc2c(C(C)C)n[nH]c2c(=O)[nH]1` [SAL-0010203], for which the “% inhibition gametocyte viability at 15 μM” value is listed as 0%.

With `CC(C)COc1ccc(S(=O)(=O)N(C)C)cc1-c1nc2c(C(C)C)n[nH]c2c(=O)[nH]1` [SAL-0010243], the “% inhibition gametocyte viability at 15 μM” value came to 100 ± 0%.

As to `CC(C)COc1ccc(S(=O)(=O)N(C)C)cc1-c1nc2c(C3CCC3)n[nH]c2c(=O)[nH]1` [SAL-0010283], the “% inhibition gametocyte viability at 15 μM” value was determined as 100 ± 0%.

For the molecule `CC(C)COc1ccc(S(=O)(=O)N(C)C)cc1-c1nc2c(C(C)(C)C)n[nH]c2c(=O)[nH]1` [SAL-0010284], the “% inhibition gametocyte viability at 15 μM” value worked out at 100 ± 0%.

For the next assay, the system named is P. falciparum stage V gametocytes (female gamete formation). The assay can be described thus: Female gamete formation inhibition assay. The class given is cell-based, Plasmodium falciparum. Conditions: 2 μM, 48 hours. As for the experimental part:
Mature gametocytes (>95% stage V) were treated with compounds (2 μM) for 48 hours before stimulating female gamete formation. To evaluate compound dose response, gametocytes were treated similarly at set concentrations representing a fourfold serial dilution. Female gamete activation was induced by both a temperature drop and the addition of 100 μM XA. Monoclonal anti-Pfs25 antibody (BEI Resources, catalog number MRA-28; 1:1000 dilution) conjugated to fluorescein isothiocyanate was used to detect female gametes. Image acquisition was performed using a Zeiss Axio Lab.A1 epifluorescence microscope with a 100/1.4 numerical aperture oil immersion objective and a Zeiss Axiocam 202 mono digital camera. Using a 100× objective, 30 images were taken per sample and analyzed manually. The number, size, roundness, and intensity of fluorescence of activated female gametocytes were evaluated. Compound IC50 values were determined with nonlinear curve fitting (GraphPad Prism 6), normalized to maximum and minimum inhibition.
For `CC(C)c1n[nH]c2c(=O)[nH]c(C3CCOc4ccc(F)cc43)nc12` (stereo not drawn) [SAL-0010007], the “% inhibition of female gamete formation at 2 μM” value was determined as 50.6 ± 1.9%.

On to `CCCCOc1ncc(Br)cc1-c1nc2c(C(C)C)n[nH]c2c(=O)[nH]1` [SAL-0010203], for which the “% inhibition of female gamete formation at 2 μM” value was 44.8 ± 1.7%.

Regarding `CC(C)COc1ccc(S(=O)(=O)N(C)C)cc1-c1nc2c(C(C)C)n[nH]c2c(=O)[nH]1` [SAL-0010243], the “% inhibition of female gamete formation at 2 μM” value stood at 80.5 ± 0.9%.

As to `CC(C)COc1ccc(S(=O)(=O)N(C)C)cc1-c1nc2c(C3CCC3)n[nH]c2c(=O)[nH]1` [SAL-0010283], the “% inhibition of female gamete formation at 2 μM” value is on record as 44.8 ± 2.5%.

Turning to `CC(C)COc1ccc(S(=O)(=O)N(C)C)cc1-c1nc2c(C(C)(C)C)n[nH]c2c(=O)[nH]1` [SAL-0010284], the “% inhibition of female gamete formation at 2 μM” value is reported as 58.6 ± 2.1%.
